From ChEMBL document CHEMBL1201862, “PubChem BioAssay data set” (2004)
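Five concentrations, 48 hours, 96-well plates. The concentration for 50% growth inhibition is given as GI50.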 Calls of active or inactive are those of the source. Cut-off read from the data, not from the text of the source: active = GI50 up to about 1.1 µM and inactive = higher.

Key:
Assay in all cases: inhibition of tumour cell growth, NCI panel, 48 h
SK-MEL-5 = system: SK-MEL-5
CCRF-CEM = system: CCRF-CEM
KM12 = system: KM12
A549 = system: A549
U-251 = system: U-251
SF-539 = system: SF-539
NCI-H522 = system: NCI-H522
HCT-116 = system: HCT-116
COLO 205 = system: COLO 205
Malme-3M = system: Malme-3M
OVCAR-3 = system: OVCAR-3
A498 = system: A498
786-0 = system: 786-0
M14 = system: M14
NCI-H460 = system: NCI-H460
SK-MEL-28 = system: SK-MEL-28
TK-10 = system: TK-10
OVCAR-5 = system: OVCAR-5
HCT-15 = system: HCT-15
LXFL 529 = system: LXFL 529
K562 = system: K562
HOP-18 = system: HOP-18
NCI-H226 = system: NCI-H226
OVCAR-4 = system: OVCAR-4
XF498 = system: XF498
SK-OV-3 = system: SK-OV-3
IGROV-1 = system: IGROV-1
RPMI-8226 = system: RPMI-8226
UACC-257 = system: UACC-257
KM-20L2 = system: KM-20L2
HOP-62 = system: HOP-62
HL-60 = system: HL-60
HT-29 = system: HT-29
SNB-78 = system: SNB-78
CAKI-1 = system: CAKI-1
SK-MEL-2 = system: SK-MEL-2
M19-MEL = system: M19-MEL
OVCAR-8 = system: OVCAR-8
RXF 393 = system: RXF 393
EKVX = system: EKVX
SF-295 = system: SF-295
RXF 631 = system: RXF 631
SW-620 = system: SW-620
SNB-19 = system: SNB-19
HOP-92 = system: HOP-92
SF-268 = system: SF-268
NCI-H23 = system: NCI-H23
SN12C = system: SN12C
SNB-75 = system: SNB-75
UACC-62 = system: UACC-62
HCC 2998 = system: HCC 2998
DMS-114 = system: DMS-114
MOLT-4 = system: MOLT-4
ACHN = system: ACHN
DMS-273 = system: DMS-273
UO-31 = system: UO-31
LOX IMVI = system: LOX IMVI
SR = system: SR
DLD-1 = system: DLD-1

For `CC(C)(C)C(=O)N1C(C(=O)O)Cc2ccccc2[C@@H]1Cc1ccccc1` (some centres undefined), the GI50 (SK-MEL-5) was > 100 µM (inactive), the GI50 (CCRF-CEM) was > 100 µM (inactive) and the GI50 (KM12) was > 100 µM (inactive). For the same compound, the GI50 (A549) was > 100 µM (inactive), the GI50 (U-251) was > 100 µM (inactive) and the GI50 (SF-539) was > 100 µM (inactive). For the same compound, the GI50 (NCI-H522) was > 100 µM (inactive), the GI50 (HCT-116) was > 100 µM (inactive) and the GI50 (COLO 205) was > 100 µM (inactive). For the same compound, the GI50 (Malme-3M) was > 100 µM (inactive), the GI50 (OVCAR-3) was > 100 µM (inactive) and the GI50 (A498) was > 100 µM (inactive). The GI50 (786-0) was > 100 µM (inactive), the GI50 (M14) was > 100 µM (inactive) and the GI50 (NCI-H460) was > 100 µM (inactive). The GI50 (SK-MEL-28) was > 100 µM (inactive), the GI50 (TK-10) was > 100 µM (inactive) and the GI50 (OVCAR-5) was > 100 µM (inactive). The GI50 (HCT-15) was greater than 100 µM, the GI50 (LXFL 529) was > 100 µM (inactive) and the GI50 (K562) was > 100 µM (inactive). For the same compound, the GI50 (HOP-18) was > 100 µM (inactive), the GI50 (NCI-H226) was 45.6 µM (inactive) and the GI50 (OVCAR-4) was > 100 µM (inactive). For the same compound, the GI50 (XF498) was > 100 µM (inactive), the GI50 (SK-OV-3) was > 100 µM (inactive) and the GI50 (IGROV-1) was > 100 µM (inactive). For the same compound, the GI50 (RPMI-8226) was > 100 µM (inactive), the GI50 (UACC-257) was > 100 µM (inactive) and the GI50 (KM-20L2) was > 100 µM (inactive). For the same compound, the GI50 (HOP-62) was > 100 µM (inactive), the GI50 (HL-60) was > 100 µM (inactive) and the GI50 (HT-29) was > 100 µM (inactive). For the same compound, the GI50 (SNB-78) was > 100 µM (inactive), the GI50 (CAKI-1) was > 100 µM (inactive) and the GI50 (SK-MEL-2) was > 100 µM (inactive). For the same compound, the GI50 (M19-MEL) was > 100 µM (inactive), the GI50 (OVCAR-8) was > 100 µM (inactive) and the GI50 (RXF 393) was > 100 µM (inactive). For the same compound, the GI50 (EKVX) was > 100 µM (inactive), the GI50 (SF-295) was > 100 µM (inactive) and the GI50 (RXF 631) was > 100 µM (inactive). The GI50 (SW-620) was > 100 µM (inactive), the GI50 (SNB-19) was > 100 µM (inactive) and the GI50 (HOP-92) was > 100 µM (inactive). The GI50 (SF-268) was > 100 µM (inactive), the GI50 (NCI-H23) was > 100 µM (inactive) and the GI50 (SN12C) was > 100 µM (inactive). For the same compound, the GI50 (SNB-75) was > 100 µM (inactive), the GI50 (UACC-62) was > 100 µM (inactive) and the GI50 (HCC 2998) was > 100 µM (inactive). The GI50 (DMS-114) was > 100 µM (inactive), the GI50 (MOLT-4) was > 100 µM (inactive) and the GI50 (ACHN) was > 100 µM (inactive). For the same compound, the GI50 (DMS-273) was > 100 µM (inactive).
In the case of `COc1ccc(C2=NOP(c3ccccc3)(c3ccccc3)(c3ccccc3)C2)cc1`, the GI50 (SK-MEL-5) is reported as 13.3 µM (inactive), the GI50 (CCRF-CEM) is reported as 7.98 µM (inactive) and the GI50 (KM12) is reported as 34.1 µM (inactive). For the same compound, the GI50 (A549) was 22.5 µM (inactive), the GI50 (U-251) was 23.5 µM (inactive) and the GI50 (SF-539) was 29.7 µM (inactive). The GI50 (NCI-H522) was 7.91 µM (inactive), the GI50 (HCT-116) was 2.39 µM (inactive) and the GI50 (COLO 205) was 9.64 µM (inactive). For the same compound, the GI50 (Malme-3M) was 21.9 µM (inactive), the GI50 (OVCAR-3) was 21.7 µM (inactive) and the GI50 (A498) was 33.3 µM (inactive). For the same compound, the GI50 (786-0) was 21.2 µM (inactive), the GI50 (UO-31) was 12.9 µM (inactive) and the GI50 (M14) was 10.8 µM (inactive). The GI50 (NCI-H460) was 9.31 µM (inactive), the GI50 (SK-MEL-28) was 27.9 µM (inactive) and the GI50 (TK-10) was > 65.6 µM (inactive). The GI50 (OVCAR-5) was 4.45 µM (inactive), the GI50 (HCT-15) was 20.4 µM and the GI50 (LXFL 529) was 5.57 µM (inactive). For the same compound, the GI50 (K562) was 4.25 µM (inactive), the GI50 (HOP-18) was 24.9 µM (inactive) and the GI50 (NCI-H226) was 25.9 µM (inactive). For the same compound, the GI50 (OVCAR-4) was 29.6 µM (inactive), the GI50 (XF498) was 20.7 µM (inactive) and the GI50 (SK-OV-3) was 43.6 µM (inactive). The GI50 (IGROV-1) was 3.35 µM (inactive), the GI50 (RPMI-8226) was 10.6 µM (inactive) and the GI50 (UACC-257) was 28.8 µM (inactive). The GI50 (KM-20L2) was 10 µM (inactive), the GI50 (HOP-62) was 20.8 µM (inactive) and the GI50 (HL-60) was 2.13 µM (inactive). The GI50 (HT-29) was 1.55 µM (inactive), the GI50 (SNB-78) was 36.5 µM (inactive) and the GI50 (CAKI-1) was 25.1 µM (inactive). For the same compound, the GI50 (SK-MEL-2) was 7.08 µM (inactive), the GI50 (M19-MEL) was 21.7 µM (inactive) and the GI50 (OVCAR-8) was 14.8 µM (inactive). For the same compound, the GI50 (LOX IMVI) was 10.1 µM (inactive), the GI50 (RXF 393) was 28.9 µM (inactive) and the GI50 (EKVX) was 63.1 µM (inactive). The GI50 (SF-295) was 2.92 µM (inactive), the GI50 (RXF 631) was 22.4 µM (inactive) and the GI50 (SW-620) was 16.2 µM (inactive). The GI50 (SNB-19) was 51.4 µM (inactive), the GI50 (HOP-92) was 6.46 µM (inactive) and the GI50 (SF-268) was 40.4 µM (inactive). The GI50 (NCI-H23) was 19.1 µM (inactive), the GI50 (SR) was 7.46 µM (inactive) and the GI50 (SN12C) was 29.6 µM (inactive). For the same compound, the GI50 (SNB-75) was 33 µM (inactive), the GI50 (UACC-62) was 13.8 µM (inactive) and the GI50 (HCC 2998) was 20.9 µM (inactive). For the same compound, the GI50 (DMS-114) was 8.61 µM (inactive), the GI50 (MOLT-4) was 7.43 µM (inactive) and the GI50 (ACHN) was 29.3 µM (inactive). For the same compound, the GI50 (DMS-273) was 16.6 µM (inactive) and the GI50 (DLD-1) was 20.8 µM (inactive).
